Ki data for 25 compounds are collected here from patent publication US9561231B2 (AbbVie Inc., priority 2012, dated 2017).

Like-named read-outs stand apart in the source and are kept apart here. Some results are limits rather than exact numbers.

For test [1], the target named is T1, first (BD1: amino acids K57-E168) bromodomain of BRD4 (Homo sapiens, UniProt O60885).
T1 construct: His-tagged first (BD1: amino acids K57-E168)
Description: TR-FRET bromodomain binding assay, BRD4 BD1. Particulars: Ki calculated from IC50, probe Kd and probe concentration, read-out: TR-FRET Binding Ki: BRD4 (BDI_K57-E168). In short, it runs like this: (§1)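 His-tagged BRD4 BD1 (K57-E168) or BD2 ([…]) displacing an Alexa647-labelled BET-inhibitor probe in 20 mM sodium phosphate pH 6.0, 50 mM NaCl, 1 mM EDTA, 0.01% Triton X-100, 1 mM DTT.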

The target in test [2] is T2, second (BD2: amino acids E352-E168) bromodomain of BRD4 (Homo sapiens, UniProt O60885).
T2 construct: protocol
Nature of the test: TR-FRET bromodomain binding assay, BRD4 BD2. Particulars: Ki calculated from IC50, probe Kd and probe concentration, read-out: TR-FRET Binding Ki: BRD4 (BDII_E352-M457). The procedure, abridged: as §1

Where [3] appears, read: TR-FRET assay protocol (A-G, compound concentration range).
Where [4] appears, read: TR-FRET assay protocol (D, E or G) per compound.

Usually Ki stands for a dissociation constant, usually derived from enzyme kinetics or from competition with a known ligand. For `Cn1nc(-c2ccccc2Oc2ccccc2)c(-c2ccc(CNc3ccccc3)cc2)cc1=O` [Example 187, 2-methyl-6-(2-phenoxyphenyl)-5-{4-[(phenylamino)methyl]phenyl}pyridazin-3(2H)-one], the results for the Ki in test [1] (setting [3]) and in test [2] (setting [3]) were 4.95 µM and 2.25 µM, respectively.
Take `CCS(=O)(=O)c1ccc(Oc2ccc(F)cc2F)c(-c2cn(C)c(=O)cc2OCC(F)(F)F)c1` [Example 398]: the values for the inhibition constant (Ki) in test [1] (setting [4]) and in test [2] (setting [4]) were 0.203 µM and 0.0309 µM, respectively.
With `Cn1cc(-c2cc(NS(C)(=O)=O)ccc2Oc2ccc(F)cc2F)cc(Cl)c1=O` [Example 282, N-[3-(5-chloro-1-methyl-6-oxo-1,6-dihydropyridin-3-yl)-4-(2,4-difluorophenoxy)phenyl]methanesulfonamide], the figures for the inhibitory constant (Ki) in test [1] (setting [3]) and in test [2] (setting [3]) were 0.0204 µM and 0.0997 µM, respectively.
With `Cn1nc(-c2ccccc2-c2ccccc2)ccc1=O` [Example 52, 6-(biphenyl-2-yl)-2-methylpyridazin-3(2H)-one], the Ki in test [1] (setting [3]) is 9 µM; in test [2] (setting [3]), 10.5 µM.
On the same counts, the results for `C=CCC(O)c1ccc(-c2cc(=O)n(C)nc2-c2ccccc2Oc2ccccc2)cc1` (centres unmarked) [Example 77, 5-[4-(1-hydroxybut-3-en-1-yl)phenyl]-2-methyl-6-(2-phenoxyphenyl)pyridazin-3(2H)-one] are 0.511 µM and 0.38 µM.
For the compound `CCO/C=C/c1cc(=O)n(C)cc1-c1cc(S(C)(=O)=O)ccc1NCC1CC1` [Example 327, 5-{2-[(cyclopropylmethyl)amino]-5-(methylsulfonyl)phenyl}-4-[(E)-2-ethoxyethenyl]-1-methylpyridin-2(1H)-one], the inhibition constant (Ki) is 0.68 µM in test [1] (setting [3]) and 1.11 µM in test [2] (setting [3]).
For `Cn1nc(-c2ccccc2Oc2ccccc2)c(-c2cnn(Cc3ccccc3)c2)cc1=O` [Example 113, 5-(1-benzyl-1H-pyrazol-4-yl)-2-methyl-6-(2-phenoxyphenyl)pyridazin-3(2H)-one], in that order: 0.407 µM and 0.317 µM.
Take `Cn1nc(-c2ccccc2Oc2ccccc2)c(-c2ccc3nsnc3c2)cc1=O` [Example 137, 5-(2,1,3-benzothiadiazol-5-yl)-2-methyl-6-(2-phenoxyphenyl)pyridazin-3(2H)-one]: the Ki in test [1] (setting [3]) is 3.26 µM; in test [2] (setting [3]), 1.17 µM.
For `CCOc1cc(=O)n(C)cc1-c1cc(NC(=O)c2ccc(C(C)C)cc2)ccc1Oc1ccc(F)cc1F` [Example 413, N-[4-(2,4-difluorophenoxy)-3-(4-ethoxy-1-methyl-6-oxo-1,6-dihydropyridin-3-yl)phenyl]-4-(propan-2-yl)benzamide], the Ki in test [1] (setting [4]) was 0.181 µM; in test [2] (setting [4]), 0.148 µM.
With `Cn1nc(-c2ccccc2Oc2ccccc2)c(-c2ccc(C=O)cc2)cc1=O` [Example 65, 4-[1-methyl-6-oxo-3-(2-phenoxyphenyl)-1,6-dihydropyridazin-4-yl]benzaldehyde], the inhibition constant Ki in test [1] (setting [3]) is 0.797 µM; in test [2] (setting [3]), 0.14 µM.
As to `COCCCNC(=O)c1ccc(-c2cc(=O)n(C)nc2-c2ccccc2Oc2ccccc2)cc1` [Example 171, N-(3-methoxypropyl)-4-[1-methyl-6-oxo-3-(2-phenoxyphenyl)-1,6-dihydropyridazin-4-yl]benzamide], the Ki is 0.253 µM in test [1] (setting [3]) and 0.215 µM in test [2] (setting [3]).
On the same counts, the results for `Cc1cc(-c2cc(=O)n(C)nc2-c2ccccc2Oc2ccccc2)ccn1` [Example 205, 2-methyl-5-(2-methylpyridin-4-yl)-6-(2-phenoxyphenyl)pyridazin-3(2H)-one] are 2.83 µM and 2.97 µM.
`CCOc1cc(=O)n(C)cc1-c1cc(NCC(C)(C)C)ccc1Oc1ccc(F)cc1F` [Example 305, 5-{2-(2,4-difluorophenoxy)-5-[(2,2-dimethylpropyl)amino]phenyl}-4-ethoxy-1-methylpyridin-2(1H)-one]: the Ki was 0.557 µM in test [1] (setting [3]) and 0.271 µM in test [2] (setting [3]).
For `CN1CC=C(c2cc(=O)n(C)nc2-c2ccccc2Oc2ccccc2)CC1` [Example 83, 2-methyl-5-(1-methyl-1,2,3,6-tetrahydropyridin-4-yl)-6-(2-phenoxyphenyl)pyridazin-3(2H)-one], in that order: 3.61 µM and 6.83 µM.
On to `CCOc1cc(=O)n(C)cc1-c1cc(NC(=O)c2ccc(N(CC)CC)cc2)ccc1Oc1ccc(F)cc1F` [Example 303, 4-(diethylamino)-N-[4-(2,4-difluorophenoxy)-3-(4-ethoxy-1-methyl-6-oxo-1,6-dihydropyridin-3-yl)phenyl]benzamide], for which the Ki in test [1] (setting [3]) was 0.233 µM; in test [2] (setting [3]), 0.201 µM.
On the same counts, the results for `CCS(=O)(=O)c1ccc(Oc2ccccc2C#CCO)c(-c2cn(C)c(=O)cc2Cl)c1` [Example 314, 4-chloro-5-{5-(ethylsulfonyl)-2-[2-(3-hydroxyprop-1-yn-1-yl)phenoxy]phenyl}-1-methylpyridin-2(1H)-one] are 0.642 µM and 0.229 µM.
On the same counts, the results for `COc1cc(=O)n(C)nc1-c1ccccc1Oc1ccc(F)c(Cl)c1` [Example 34, 6-[2-(3-chloro-4-fluorophenoxy)phenyl]-5-methoxy-2-methylpyridazin-3(2H)-one] are 8.17 µM and 3.19 µM.
On the same counts, the results for `CC1CCN(C(=O)c2cccc(-c3cc(=O)n(C)nc3-c3ccccc3Oc3ccccc3)c2)CC1` [Example 154, 2-methyl-5-{3-[(4-methylpiperidin-1-yl)carbonyl]phenyl}-6-(2-phenoxyphenyl)pyridazin-3(2H)-one] are 11.9 µM and 5.94 µM.
Turning to `CC(=O)c1cccc(-c2cc(=O)n(C)nc2-c2ccccc2Oc2ccccc2)c1F` [Example 124, 5-(3-acetyl-2-fluorophenyl)-2-methyl-6-(2-phenoxyphenyl)pyridazin-3(2H)-one], the inhibitory constant (Ki) was 8.12 µM in test [1] (setting [3]) and 17.7 µM in test [2] (setting [3]).
On the same counts, the results for `Cn1nc(-c2cc([N+](=O)[O-])ccc2Oc2ccccc2)ccc1=O` [Example 9, 2-methyl-6-(5-nitro-2-phenoxyphenyl)pyridazin-3(2H)-one] are 10.5 µM and 9.26 µM.
On the same counts, the results for `COc1ccc(-c2cc(=O)n(C)nc2-c2ccccc2Oc2ccccc2)cc1F` [Example 203, 5-(3-fluoro-4-methoxyphenyl)-2-methyl-6-(2-phenoxyphenyl)pyridazin-3(2H)-one] are 3.51 µM and 1.52 µM.
On to `COc1cc(=O)n(C)nc1-c1ccccc1OCC1CCCC1` [Example 46, 6-[2-(cyclopentylmethoxy)phenyl]-5-methoxy-2-methylpyridazin-3(2H)-one], for which the inhibition constant (Ki) in test [1] (setting [3]) is 4.39 µM; in test [2] (setting [3]), 18 µM.
With `COc1cnccc1-c1cc(=O)n(C)nc1-c1ccccc1Oc1ccccc1` [Example 213, 5-(3-methoxypyridin-4-yl)-2-methyl-6-(2-phenoxyphenyl)pyridazin-3(2H)-one], the inhibition constant Ki in test [1] (setting [3]) is more than 13 µM; in test [2] (setting [3]), 15.2 µM.
For `COc1cc(=O)n(C)nc1-c1ccccc1OCC1CCN(C(=O)OC(C)(C)C)CC1` [Example 43, tert-butyl 4-{[2-(4-methoxy-1-methyl-6-oxo-1,6-dihydropyridazin-3-yl)phenoxy]methyl}piperidine-1-carboxylate], in that order: more than 5.82 µM and more than 22.2 µM.
For `Cn1nc(-c2ccccc2Cc2ccccc2)ccc1=O` [Example 222, 6-(2-benzylphenyl)-2-methylpyridazin-3(2H)-one], in that order: 6.84 µM and 1.36 µM.
